Assay results reported in patent US20180110770A1, “FERROPTOSIS AND GLUTAMINOLYSIS INHIBITORS AND METHODS OF TREATMENT” (MEMORIAL SLOAN-KETTERING CANCER CENTER, priority 2015, published 2018).
Peptide text beside a SMILES is read from it. * marks the point of attachment. Cbz = O=C(OCc1ccccc1)*; CH2F = FC*

Legend:
MEFs [1] = test: Erastin-induced ferroptosis; assay type: cell-based, mouse; settings: erastin 1 μM, 12 hrs, DFO 80 μM, CPX 10 μM, 968 20 μM, AOA 0.5 mM, U0126 and PD0325901 10 μM
TNF-α induced apoptosis = test: TNF-α induced apoptosis; assay type: cell-based; settings: TNF-α 50 ng/ml + SMAC mimetic 0.5 μM; AOA 0.5 mM
MEFs [2] = test: Serum-dependent necrosis (serum-induced cell death) upon amino acid or cystine starvation; assay type: cell-based, mouse; settings: 12 hrs, NAC 0.2 mM, Trolox 0.2 mM; for inhibition of serum-dependent necrosis (cell viability / cell death): total amino acid starvation in the presence of FBS, GPNA 5 mM, 968 20 μM, AOA 0.5 mM, BPTES 10 μM, DFO 80 μM, CPX 10 μM, BIP 100 μM, cysteine/cystine 0.2 mM, U0126 and PD0325901 10 μM; for inhibition of serum-dependent cell death triggered by cystine starvation: cystine starvation in the presence of serum
Description: (§1) To induce cell death, 80%-confluent cells were washed with PBS twice, and then cultured in amino acid-free medium, with specific factors added as indicated in individual experiments. Cell death was analyzed by propidium iodide (PI) staining coupled with microscopy or flow cytometry. Alternatively, cell viability was determined using the CellTiter-Glo luminescent Cell Viability Assay (Promega). In assays using WT MEFs, viability was calculated by normalizing ATP levels to cells treated with amino acid-starvation in the presence of 10% (v/v) diFBS, while in assays using bax/bak-DKO MEFs, ATP levels were normalized to cells treated with amino acid and FBS double starvation.

[3] = test system: hearts isolated from wild-type mice; test: Ischemia-reperfusion (I/R) analysis using isolated hearts (ex vivo heart model); assay type: in vivo; settings: ex vivo mouse heart, DFO 80 μM; for left ventricular developed pressure (LVDP) recovery at the end of reperfusion / myocardial infarct size (TTC staining): 30 min global ischemia, 60 min reperfusion; for left ventricular developed pressure (LVDP) recovery at the end of reperfusion: 968 25 μM in perfusate, vehicle 43.20%±1.66%; for myocardial infarct size (TTC staining): vehicle 30.82%±0.57%
Description: Male C57BL/6J mice weighing 25-30 g at age 12-14 weeks were used in all experiments and maintained in a temperature-controlled room with alternating 12:12-h light-dark cycles. Experiments were performed using an isovolumic isolated heart preparation as published and modified for the use in mice hearts ([…] et al., 2009; Hwang et al., 2004). Hearts from 12-14 weeks aged wild-type mice were isolated, and retrograde perfused at 37° C. in a non-recirculating mode through the aorta at a rate of 2.5 ml/min. Hearts were perfused with modified Krebs-Henseleit (KH) buffer (118 mM NaCl, 4.7 mM KCl, 2.5 mM CaCl2, 1.2 mM MgCl2, 25 mM NaHCO3, 5 mM glucose, 0.4 mM palmitate, 0.2 mM glutamine, 10 μg/ml human recombinant transferrin, 0.4 mM BSA, and 70 mU/1 insulin). Left ventricular developed pressure (LVDP) was measured using a latex balloon in the left ventricle. LVDP and coronary perfusion pressure were monitored continuously on a four-channel Gould recorder. Hearts were perfused either with KH buffer containing vehicle (DMSO) or the Compounds throughout the FR protocol. After an equilibration period of 30 min, global ischemia was performed for 30 min followed by 60 minutes of reperfusion. Cardiac injury due to I/R stress was assessed by measuring LDH release in the perfusates that were collected during 60 min of reperfusion. […] After 60 min of reperfusion, the heart is perfused with Evans blue in-situ and then removed. Hearts were sliced into cross-sections at approximately 1-mm intervals. The sections were embedded in the TTC solution at 37° C. for 10 min, and area of infarct as a percent of the whole heart was quantified as described. Functional recovery of LVDP was expressed by comparing to the initial LVDP before ischemia. All animal experiments were approved by the Institutional Animal Care and Use Committees of New York University School of Medicine and conformed to the guidelines outlined in the National Institutes of Health Guide for Care and Use of Laboratory Animals (NIH Pub. No. 85-23, 1996).

[4] = 2,2-Diphenyl-1-picrylhydrazyl assay for antioxidant activity; settings: compound 50 μM, DPPH 50 μM in methanol, 1 hr, room temperature, absorbance at 517 nm
Description: The experiment was performed as described previously (Blois, 1958; Dixon et al., 2012). 2,2-Diphenyl-1-picrylhydrazyl (DPPH) (Sigma Cat#D9132) was dissolved in methanol to a final concentration of 50 μM. The tested compounds were added to 1 ml of DPPH solution with a final concentration of 50 μM. Samples were mixed well and incubated at room temperature for 1 hr. The absorbance at 517 nm (indicating the concentration of non-reduced DPPH) was measured using methanol as control.

MEK1/2 = settings: MEFs, PD0325901 10 μM, U0126 10 μM, Western blotting
bax/bak-DKO MEFs = test: Death-inducing activity of transferrin and L-Gln under amino acid starvation; assay type: cell-based, mouse; settings: 12 hrs
Description: as §1

MEFs [5] = test: Death-inducing activity of serum small molecules under amino acid starvation with diFBS; assay type: cell-based, mouse; settings: 12 hrs, α-KG 4 mM also in the presence of AOA 0.5 mM, glucose with diFBS or transferrin
Description: as §1

caspase-3 activation = test: Caspase-3 activation induced by UV light (Western blot); assay type: cell-based

NOCC(=O)O [AOA, amino-oxyacetate]
inhibition of erastin-induced ferroptosis (PI staining, flow cytometry) (MEFs [1]): can also inhibit | inhibition of TNF-α induced apoptosis (TNF-α induced apoptosis): cannot inhibit | inhibition of serum-dependent necrosis (cell viability / cell death) (MEFs [2]): could inhibit

O=C(Cc1ccccc1)Nc1nnc(CCSCCc2nnc(NC(=O)Cc3ccccc3)s2)s1 [BETPS, Bis-2-(5-phenylacetamido-1,3 ,4-thiadiazol-2-yl)ethyl sulfide]
inhibition of serum-dependent necrosis (cell viability / cell death) (MEFs [2]): failed to block

c1ccc(-c2ccccn2)nc1 [BIP, 2,2-bipyridyl]
inhibition of serum-dependent necrosis (cell viability / cell death) (MEFs [2]): blocked

Cc1cc(C2CCCCC2)n(O)c(=O)c1 [CPX, ciclopirox olamine]
inhibition of erastin-induced ferroptosis (PI staining, flow cytometry) (MEFs [1]): inhibited | inhibition of serum-dependent necrosis (cell viability / cell death) (MEFs [2]): blocked

CN(C)c1ccc(C2Nc3ccc4ccccc4c3C3=C2C(=O)CC(C)(C)C3)cc1Br (stereo not drawn) [Compound 968]
inhibition of erastin-induced ferroptosis (PI staining, flow cytometry) (MEFs [1]): can also inhibit | left ventricular developed pressure (LVDP) recovery at the end of reperfusion [3]: 75.25%±5.75% | myocardial infarct size (TTC staining) ([3]; 968 25 μM): 17.36%±0.47% | release of lactate dehydrogenase (LDH) during reperfusion ([3]; perfusates collected during 60 min reperfusion, 968 25 μM): significantly inhibited | antioxidant activity (reduction of DPPH) [4]: showed no anti-oxidant function | inhibition of serum-dependent necrosis (cell viability / cell death) (MEFs [2]): completely inhibited

N#CC(=C(/N)Sc1ccccc1N)/C(C#N)=C(\N)Sc1ccccc1N [Compound U0126]
inhibition of erastin-induced ferroptosis (PI staining, flow cytometry) (MEFs [1]): able to block | inhibition of MEK1/2 kinase activity (MEK1/2): confirmed the inhibition of MEK1/2 kinase activity | antioxidant activity (reduction of DPPH) [4]: anti-oxidative property | inhibition of serum-dependent necrosis (cell viability / cell death) (MEFs [2]): able to block

CC(=O)N(O)CCCCCNC(=O)CCC(=O)N(O)CCCCCNC(=O)CCC(=O)N(O)CCCCCN [DFO, Deferoxamine]
left ventricular developed pressure (LVDP) recovery at the end of reperfusion [3]: 64.75%±4.09% | myocardial infarct size (TTC staining) ([3]; 968 25 μM): 22.60%±0.97%

CCOC(=O)c1ccc(NC2CCCCC2)c(N)c1 [Fer-1]
inhibition of serum-dependent cell death triggered by cystine starvation (MEFs [2]): can block | inhibition of serum-dependent necrosis (cell viability / cell death) (MEFs [2]): can block

N[C@@H](CCC(=O)Nc1ccc([N+](=O)[O-])cc1)C(=O)O [GPNA, L-g-glutamyl-p-nitroanilide]
inhibition of serum-dependent necrosis (cell viability / cell death) (MEFs [2]): markedly blocked

N[C@@H](CCC(=O)N[C@@H](CS)C(=O)NCC(=O)O)C(=O)O [GSH, glutathione]
inhibition of serum-dependent cell death triggered by cystine starvation (MEFs [2]): effectively blocked | inhibition of serum-dependent necrosis (cell viability / cell death) (MEFs [2]): effectively blocked

NC(=O)CC[C@H](N)C(=O)O [L-Gln, L-glutamine]
induction of cell death by L-Gln alone (bax/bak-DKO MEFs; L-Gln 0.1 mM alone): induced modest but measurable cell death | induction of cell death in the presence of diFBS (MEFs [5]): induced potent cell death

CC(=O)N[C@@H](CS)C(=O)O [NAC, N-acetylcysteine]
inhibition of serum-dependent cell death triggered by cystine starvation (MEFs [2]): effectively blocked | inhibition of serum-dependent necrosis (cell viability / cell death) (MEFs [2]): effectively blocked

O=C(NOC[C@H](O)CO)c1ccc(F)c(F)c1Nc1ccc(I)cc1F [PD0325901]
antioxidant activity (reduction of DPPH) [4]: showed no anti-oxidant function

Cc1c(C)c2c(c(C)c1O)CCC(C)(C(=O)O)O2 (stereo not drawn) [Trolox, 6-hydroxy-2,5,7,8-tetramethylchroman-2-carboxylic acid]
inhibition of serum-dependent cell death triggered by cystine starvation (MEFs [2]): effectively blocked | inhibition of serum-dependent necrosis (cell viability / cell death) (MEFs [2]): effectively blocked

N[C@@H](CS)C(=O)O [cysteine]
inhibition of serum-dependent necrosis (cell viability / cell death) (MEFs [2]): rescued cells from necrosis

N[C@@H](CSSC[C@H](N)C(=O)O)C(=O)O [cystine]
inhibition of serum-dependent necrosis (cell viability / cell death) (MEFs [2]): rescued cells from necrosis

COC(=O)C[C@H](NC(=O)[C@H](C)NC(=O)[C@@H](NC(=O)OCc1ccccc1)C(C)C)C(=O)CF [zVAD-FMK] (Cbz-Val-Ala-Asp(OMe)-CH2F)
block of caspase-3 activation induced by UV light (caspase-3 activation): can block | inhibition of serum-dependent necrosis (cell viability / cell death) (MEFs [2]): failed to block

COC(=O)CCC(=O)C(=O)OC [α-KG, Dimethyl-α-Ketoglutarate]
induction of cell death in the presence of diFBS (MEFs [5]): can induce potent cell death

L-alanine-L-glutamine [A-Q]
induction of cell death in the presence of diFBS (MEFs [5]): able to induce cell death

recombinant human holo-transferrin: recombinant human holo-transferrin expressed in rice
induction of cell death in the presence of smFBS (bax/bak-DKO MEFs; with smFBS): could induce cell death in a dose-dependent manner

transferrin: iron carrier protein in serum
cell death on addition of transferrin to L-Gln (bax/bak-DKO MEFs; with L-Gln 0.1 mM): further enhanced cell death
